# Patent US20260284011A1, “COMPOUNDS FOR RESTORING SUSCEPTIBILITY TO BETA-LACTAM ANTIBIOTICS” (UNIVERSITY OF NOTRE DAME DU LAC, priority 2023, published 2026)
# Read-outs that look alike come from different tables or passages of the source.
# How the values were obtained:
# [1] = test system: various MRSA strains (NRS21, NRS70, NRS382, NRS404, HFH29568, HFH30495); assay: Time-kill assays (FIG. 6); format: cell-based, Staphylococcus aureus; conditions: at 24 h
# Description: (§1) Time-kill assay. MRSA strains (NRS21, NRS70, NRS382, NRS404, HFH 29568, and HFH 30495) were grown overnight on tryptic soy agar plate. Bacteria were diluted in Muller-Hinton broth containing 2% NaCl to […] CFU·mL^−1. […] For MEM and CPT, cation-adjusted Muller-Hinton broth without 2% NaCl was used. Aliquots were taken at 0, 3, 6, 9, 12, and 24 h and were diluted serially for bacterial counts. The assay was done in triplicate.
# [2] = test system: HIP06297 (NRS17), MRSA, SCCmec II, bla +; assay: MIC determination and potentiation assay (microdilution broth); format: cell-based; conditions: Staphylococcus aureus
# Description: (§2) MICs were determined by the microdilution broth method following the Clinical & Laboratory Standards Institute (CLSI) guidelines. […] Experiments were performed in triplicate in 96-well plates with 5×10^5 CFU·mL^−1 of bacteria. […] The MIC was the concentration for which bacterial growth was not observed.
# [3] = test system: MSSA476 (NRS72), MSSA, bla +; assay: as above; format: cell-based; conditions: Staphylococcus aureus
# Description: as §2
# [4] = test system: HIP5836 (NRS4), MRSA/VISA, SCCmec II, bla +; assay: as above; format: cell-based; conditions: Staphylococcus aureus, agent alone
# Description: as §2
# [5] = test system: CO-34 (NRS662), MRSA, SCCmec IV, bla +; assay: as above; format: cell-based; conditions: Staphylococcus aureus
# Description: as §2
# [6] = test system: H2138 (NRS271), MRSA, SCCmec IV, bla +; assay: as above; format: cell-based; conditions: Staphylococcus aureus
# Description: as §2
# [7] = test system: HIP 133170 (VRS3a), MRSA/VRSA, SCCmec IV, bla +; assay: as above; format: cell-based, Staphylococcus aureus; conditions: for MIC: Staphylococcus aureus
# Description: as §2
# [8] = test system: NTCT 8325 (NRS77), MSSA, bla −; assay: as above; format: cell-based, Staphylococcus aureus; conditions: for MIC: Staphylococcus aureus
# Description: as §2
# [9] = test system: ATCC 29213, MSSA, bla +; assay: as above; format: cell-based, Staphylococcus aureus; conditions: for MIC: Staphylococcus aureus
# Description: as §2
# [10] = test system: JE2, MRSA, SCCmec IV, bla −; assay: as above; format: cell-based, Staphylococcus aureus; conditions: for MIC: Staphylococcus aureus, MRSA, agent alone
# Description: as §2
# [11] = test system: HIP15178 (VRS5), MRSA/VRSA, SCCmec II, bla +; assay: as above; format: cell-based, Staphylococcus aureus; conditions: for MIC: Staphylococcus aureus
# Description: as §2
# [12] = test system: HIP07920 (NRS21), MRSA/VISA, SCCmec IV, bla +; assay: as above; format: cell-based, Staphylococcus aureus; conditions: for MIC: Staphylococcus aureus, agent alone
# Description: as §2
# [13] = test system: COL (NRS100), MRSA, SCCmec I, bla −; assay: as above; format: cell-based, Staphylococcus aureus; conditions: for MIC: Staphylococcus aureus
# Description: as §2
# [14] = test system: LIM2 (NRS36), MRSA, SCCmec I, bla +; assay: as above; format: cell-based, Staphylococcus aureus; conditions: for MIC: Staphylococcus aureus
# Description: as §2
# [15] = test system: FPR3757 (USA300 clone); assay: Time-kill assay; format: cell-based, Staphylococcus aureus; conditions: for antibacterial activity as single-drug treatment: FIG. 3, 24 h, MEM 2 mg·L^−1, 4 8 mg·L^−1
# [16] = test system: strain FPR3757 (a USA300 strain); assay: Checkerboard assay; format: cell-based, Staphylococcus aureus; conditions: 24-h incubation
# Description: Synergy with β-Lactams and Time-Kill Assays. […] In this assay, the antibiotics are compared individually and in combination. The fractional inhibitory concentration (FIC) index is calculated. Synergy is defined as an FIC value ≤0.5, indifference as FIC >0.5 to ≤4, and antagonism as FIC >4.
# Checkerboard assay. […] The final inoculum in each well was 5×10^5 CFU·mL^−1, and the result was read after 24-h incubation at 37° C. The fractional inhibitory concentration (FIC) index was calculated for each combination. An FIC index of ≤0.5 is considered synergistic. The experiment was done in triplicates.
# [17] = test system: NRS21; assay: Time-kill assay; format: cell-based, Staphylococcus aureus; conditions: for antibacterial activity as single-drug treatment: FIG. 3, 24 h, OXA 32 mg·L^−1, 4 8 mg·L^−1
# Description: as §1
# [18] = HIP06297 (NRS17), agent alone, read-out: MIC
# [19] = MSSA476 (NRS72), agent alone, read-out: MIC
# [20] = CO-34 (NRS662), agent alone, read-out: MIC
# [21] = H2138 (NRS271), agent alone, read-out: MIC
# [22] = HIP 133170 (VRS3a), agent alone, read-out: MIC
# [23] = NTCT 8325 (NRS77), agent alone, read-out: MIC
# [24] = ATCC 29213, agent alone, read-out: MIC
# [25] = HIP15178 (VRS5), agent alone, read-out: MIC
# [26] = COL (NRS100), agent alone, read-out: MIC
# [27] = LIM2 (NRS36), agent alone, read-out: MIC
# [28] = strain NTCT8325, 4 at 8 mg·L^−1
# [29] = MSSA strain ATCC29213, 4 at 8 mg·L^−1
Structure (SMILES),reduction in bacterial growth by itself [1],"MIC [2, 18] [µg/mL]","MIC [3, 19] [µg/mL]",MIC [4] [µg/mL],"MIC [5, 20] [µg/mL]","MIC [6, 21] [µg/mL]","MIC [7, 22] [µg/mL]","MIC [8, 23] [µg/mL]","MIC [9, 24] [µg/mL]",MIC [10] [µg/mL],"MIC [11, 25] [µg/mL]",MIC ([12]; HIP07920 (NRS21)) [µg/mL],"MIC [13, 26] [µg/mL]","MIC [14, 27] [µg/mL]",antibacterial activity as single-drug treatment [15],"FIC index, 4 with MEM [16]",antibacterial activity as single-drug treatment [17],MIC [6] [µg/mL],MIC [7] [µg/mL],MIC [11] [µg/mL],also measured
"CCO/N=C(\C(=O)N[C@@H]1C(=O)N2C(C(=O)[O-])=C(Sc3nc(-c4cc[n+](C)cc4)cs3)CS[C@H]12)c1nsc(N)n1 [CPT, ceftaroline]","Neither OXA, MEM, CPT, or compound 4 by itself showed reduction in bacterial growth",1,0.13,0.25,1,1,1,0.25,0.06,1,1,0.5,1,1,–,–,–,–,–,–,–
"N#Cc1ccc2nc(SCB(O)O)n(Cc3ccc(C(F)(F)F)cc3C(F)(F)F)c2c1 [Compound 4, (((1-(2,4-bis(trifluoro-methyl)benzyl)-6-cyano-1H-benzo[d]imidazol-2-yl)thio)methyl)boronic acid]","Neither OXA, MEM, CPT, or compound 4 by itself showed reduction in bacterial growth",32,32,16,16,16,16,16,16,16,32,8,32,16,did not show antibacterial activity,0.13,did not show antibacterial activity,–,–,–,"log increase in bacterial growth at 24 h ([17]; compound 4 at 8 mg·L^−1): 4.1 log; fold lowering of MEM MIC by 4 ([7]; vancomycin-resistant MRSA, Table 1 entry 19 (VRS3a)): 256 fold; effect of 4 on the OXA MIC [8, 28]: no effect; fold lowering of MEM MIC by 4 [8, 28]: 2 fold; fold lowering of MEM MIC by 4 [9, 29]: 2 fold; fold lowering of OXA MIC by 4 [9, 29]: 4 fold; fold lowering of MEM MIC by 4 ([10]; 4 at 8 mg·L^−1): 64 fold; fold reduction of OXA MIC by 4 ([10]; 4 at 8 mg·L^−1): 2 fold; fold lowering of MEM MIC by 4 ([11]; vancomycin-resistant MRSA, Table 1 entry 13 (VRS5)): 64 fold; fold lowering of FOX MIC by 4 ([12]; strain NRS21, 4 at 4 mg·L^−1): 2048 fold; fold reduction of OXA MIC by 4 ([12]; strain NRS21, 4 at 4 mg·L^−1): 4096 fold; fold lowering of MEM MIC by 4 ([13]; COL, 4 at 8 mg·L^−1): 16 fold; fold reduction of OXA MIC by 4 ([13]; COL, 4 at 8 mg·L^−1): 2 fold; fold lowering of MEM MIC by 4 ([14]; strain NRS36, 4 at 8 mg·L^−1): 512 fold; fold lowering of OXA MIC by 4 ([14]; strain NRS36, 4 at 8 mg·L^−1): 64 fold"
"CO[C@@]1(NC(=O)Cc2cccs2)C(=O)N2C(C(=O)O)=C(COC(N)=O)CS[C@@H]21 [FOX, cefoxitin]",–,256,4,64,64,–,–,4,4,64,–,64,256,–,–,–,–,128,128,128,MIC [14]: 128 µg/mL
"C[C@@H](O)[C@H]1C(=O)N2C(C(=O)O)=C(S[C@@H]3CN[C@H](C(=O)N(C)C)C3)[C@H](C)[C@H]12 [MEM, meropenem]","Neither OXA, MEM, CPT, or compound 4 by itself showed reduction in bacterial growth",4,0.13,8,8,16,16,0.13,0.13,4,8,8,16,8,did not show antibacterial activity,0.13,–,–,–,–,activity of MEM by itself ([15]; throughout the 24-h assay): no activity
"Cc1onc(-c2ccccc2)c1C(=O)N[C@@H]1C(=O)N2[C@@H]1SC(C)(C)[C@@H]2C(=O)O [OXA, oxacillin]","Neither OXA, MEM, CPT, or compound 4 by itself showed reduction in bacterial growth",–,–,–,–,–,–,–,–,–,–,–,–,–,–,–,did not show antibacterial activity,256,256,256,"MIC [2]: 2 µg/mL; MIC [3]: 0.5 µg/mL; MIC [5]: 64 µg/mL; log increase compared to initial bacterial count at 0 h ([17]; OXA at 32 mg·L^−1 by itself): 1.9 log; MIC [8]: 0.25 µg/mL; MIC [9]: 2 µg/mL; MIC of the β-lactam with 4 ([12]; HIP07920 (NRS21), Concentration of 4: 4 mg · L^−1): 0.03 µg/mL; MIC [13]: 512 µg/mL; MIC [14]: 64 µg/mL"
